The subject of one data set is hMECP2. Briefly: Ratio of neurocytes with MECP2 knocked down versus amount of lentivirus infection (mCherry fluorescence). It counts as cell-based, human. Conditions: coculture. From the text:
As a lentivirus vector for transfection, an hMECP2-shRNA lentivirus vector plasmid was used. This plasmid vector contains, downstream of a U6 promoter, a base sequence of SEQ ID NO: 3 ([…]) encoding an shRNA complementary to the 3′ UTR of the hMECP2 gene. Additionally, as a control lentivirus vector, an NC-shRNA lentivirus vector plasmid was used. This plasmid vector contains, downstream of a U6 promoter, a non-mammalian shRNA having a base sequence of SEQ ID NO: 4 ([…]).
At 4 days after the cell seeding, virus solutions for expression of the respective shRNAs were added under MOI 0.1 and MOI 1, and allowed to cause infection. MOI was prepared in accordance with only the number of neurocytes. At 7 hours after the infection, the whole amount of culture medium was replaced. To the culture medium in the wells to be rescued, BDNF, which is known for the therapeutic effect for Rett syndrome, was added at 50 ng/mL.

Data set [1] relates to iPS cell-derived differentiated neurocyte cocultured with human primary astrocyte. The experiment in a line: Neurite morphology of iPS cell-derived neurocytes with hMECP2 knockdown, coculture with human primary astrocytes (phase-contrast observation, BDNF rescue). The class given is cell-based. The following applies: observed Day 11 to Day 42. The protocol:
(§1) Commercially available iPS-cell-derived neurocytes (#EX-SeV-CW50065, Elixirgen Scientific, Inc.) and commercially available human primary astrocytes (#N7805-100, Thermo Fisher Scientific Inc.) were thawed and used to prepare cell suspensions with culture media at 1×10^4 cells/well and 2.5×10^3 cells/well respectively. After the Laminine solution was removed, the suspension was seeded at 50 μL/well, and cocultured. For single culture, 1×10^4 cells/well neurocytes were seeded at 50 μL/well. The culture continued under 5% CO2 at 37° C. in the incubator for 6 weeks. Half the amount of the culture medium was replaced once in 3 to 4 days. The culture medium used was a culture medium specified by Elixirgen Scientific, Inc. for the period of 1 week after the seeding. Then, the culture medium used was Neurobasal Plus supplemented with 2% B-27 Plus, 1% GlutaMAX, 200 μM ascorbic acid, 10% Neurocyte culture medium, and 1% penicillin-streptomycin.
(§2) At 4 days after the cell seeding, virus solutions for expression of the respective shRNAs were added under MOI 0.1 and MOI 1, and allowed to cause infection. MOI was prepared in accordance with only the number of neurocytes. At 7 hours after the infection, the whole amount of culture medium was replaced. To the culture medium in the wells to be rescued, BDNF, which is known for the therapeutic effect for Rett syndrome, was added at 50 ng/mL. […]

In data set [2] the test system is iPS cell-derived differentiated neurocyte alone. The experiment in a line: Neurite morphology of iPS cell-derived neurocytes infected with hMECP2-shRNA lentivirus, single culture. The class given is cell-based, human. The following applies: FIG. 3. The protocol:
as §1, §2

We go through two molecules from US20230303972A1, “IN VITRO GENETIC DISEASE MODEL CELL AND METHOD FOR PRODUCING THE SAME” (Ricoh Company, Ltd., priority 2022, published 2023).

As for “hMECP2-shRNA: shRNA complementary to the 3′ UTR of the hMECP2 gene, encoded by SEQ ID NO: 3, expressed from a lentivirus vector (DNA GGGTAGGGCTCTGACAAAGCTTCCCGATTAACTGAAATAAA)”, the “Ratio of neurocytes with MECP2 knocked down” value with hMECP2 (infection with a large amount of lentivirus, FIG. 5) is on record as “in substantially all the neurocytes”; in the data set on hMECP2 (infection with a small amount of lentivirus, FIG. 4) it was “in a part of the neurocytes”. Also, the “Knockdown effect on hMECP2 evaluated by number of neurites and length of the neurite” value in data set [1] (coculture of neurocyte and human primary astrocyte, FIG. 1 a to f) was “chronological decrease in the number of neurites and decrease in the length of the neurite”; in data set [2] it was “neither a decrease in the number of neurites nor a change in the length of the neurite”.

B1: BDNF: BDNF, which is known for the therapeutic effect for Rett syndrome, added to culture medium (protein, UniProt P23560 19-247, looked up)
Neurotrophic factor BDNF …: APMKEANIRGQGGLAYPGVRTHGTLESVNGPKAGSRGLTSLADTFEHVIEELLDEDQKVRPNEENNKDADLYTSRVMLSSQVPLEPPLLFLLEEYKNYLDAANMSMRVRRHSDPARRGELSVCDSISEWVTAADKKTAVDMSGGTVTVLEKVPVSKGQLKQYFYETKCNPMGYTKEGCRGIDKRHWNSQCRTTQSYVRALTMDSKKRIGWRFIRIDTSCVCTLTIKRGR
In the case of B1, the “Rescue of the hMECP2 knockdown effect (decrease in number and length of neurites)” value in data set [1] (BDNF 50 ng/mL in culture medium, hMECP2-shRNA lentivirus-infected neurocytes cocultured with astrocytes, FIG. 1 g to l) is reported as “improved”.
